Key:
HIV-1 protease = HIV-1 protease (Human immunodeficiency virus type 1 group M subtype B, UniProt P04585); experiment: Fluorescence HIV-1 Protease Inhibitor Assay (Pandex); type: biochemical; design: made in house; host or cells: E. coli K12 L507/pHP10D (NRRL B-18560); details: normalized to positive control (=1.0); * = a calculated average; read-out: Fluorescence Assay IC50 in ng/mL (converted)

Row | Structure (SMILES) | melting point [°C] | IC50 (HIV-1 protease) [nM]
1 | CC(C)(C)NC(=O)c1ccccc1C[C@@H](O)[C@@H](CSc1ccc2ccccc2c1)NC(=O)c1cccc2c1CCN2 [Example 65, [2′R-(2′R*,3′S*)]-N-t-Butyl-2-[2′-hydroxy-3′-naphth-2-ylthiomethyl-4′-aza-5′-oxo-5′-(indolin-4″-yl)pentyl] benzamide] | 83 to 84 | 687
2 | CC(C)(C)NC(=O)c1ccccc1C[C@@H](O)[C@@H](CSc1ccc2ccccc2c1)NC(=O)c1ccnc2ccccc12 [Example 66, [2′R-(2′R*,3′S*)]-N-t-Butyl-2-[2′-hydroxy-3′-naphth-2-ylthiomethyl-4′-aza-5′-oxo-5′-(quinolin-4″-yl)pentyl] benzamide] | 89 to 92 | 474
3 | Cc1c(C(=O)NC(CSc2ccc3ccccc3c2)C(O)Cc2ccccc2C(=O)NC(C)(C)C)cccc1[N+](=O)[O-] (stereo not drawn) [Example 67, [2′R-(2′R*,3′S*)]-N-t-Butyl-2-[2′-hydroxy-3′-naphth-2-hiomethyl-4′-aza-5′-oxo-5′-(2″-methyl-3″-nitrophenyl)pentyl] benzamide] | 80 to 81 | 927
4 | Cc1ccc([N+](=O)[O-])cc1C(=O)NC(CSc1ccc2ccccc2c1)C(O)Cc1ccccc1C(=O)NC(C)(C)C (stereo not drawn) [Example 68, [2′R-(2′R*,3′S*)]-N-t-Butyl-2-[2′-hydroxy-3′-naphth-2-ylthiomethyl-4′-aza-5′-oxo-5′-(3″-nitro-6″-methylphenyl)pentyl] benzamide] | 85 to 88 | 17100
5 | Cc1c(C(=O)NC(CSc2ccc3ccccc3c2)C(O)Cc2ccccc2C(=O)NC(C)(C)C)ccc(O)c1O (stereo not drawn) [Example 70, [2′R-(2′R*,3′S*)]-N-t-Butyl-2-[2′-hydroxy-3′-naphth-2-ylthiomethyl-4′-aza-5′-oxo-5′-(2″-methyl-3″,4″-dihydroxyphenyl)pentyl] benzamide] | 121 to 123 | 183
6 | CC(C)(C)NC(=O)c1ccccc1CC(O)C(CSc1ccc2ccccc2c1)NC(=O)c1ccc(N)cc1Cl (stereo not drawn) [Example 71, [2′R-(2′R*,3′S*)]-N-t-Butyl-2-[2′-hydroxy-3′-naphth-2-ylthiomethyl-4′-aza-5′-oxo-5′-(2″-chloro-4″-aminophenyl)pentyl] benzamide] | 102 to 104 | 312
7 | CC(C)(C)NC(=O)c1ccccc1CC(O)C(CSc1ccc2ccccc2c1)NC(=O)c1ccc(N)c(O)c1 (stereo not drawn) [Example 73, [2′R-(2′R*,3′S*)]-N-t-Butyl-2-[2′-hydroxy-3′-naphth-2-ylthiomethyl-4′-aza-5′-oxo-5′-(3″-hydroxy-4″-aminophenyl)pentyl] benzamide] | 119 to 122 | 3480

Reference: US20030216569A1, “Method of making HIV protease inhibitors” (priority 1993, published 2003)
